What all share (format): cell-based, human
One experiment deals with TET1 mRNA in 1833 cells. Nature of the experiment: qRT-PCR for TET1 mRNA after demethylation treatment of 1833 cells. Particulars: 1833 cells treated with 5-azacytidine, GAPDH normalization (FIG. 18D). As for the experimental part: (§1) Total RNA was isolated from cells by using miRNeasy Mini Kit (Qiagen) following the manufacturer's instructions. Quantitative RT-PCR (qRT-PCR) was performed as described (4). The qPCR primers for human or murine HMGA2, TET1, HOXA genes and GAPDH were Taqman and were purchased from Applied Biosystems. Cells were subjected to 5-azacytidine (1 or 3.6 μM), decitabine (5-aza-dC; 220 or 440 nM), or mock treatment by addition into cell culture at indicated concentration. Cells were treated daily. RNA and protein were isolated respectively.

Another experiment has as its system HOXA7 mRNA in 1833 cells. In words: qRT-PCR for HOXA7 mRNA after demethylation treatment of 1833 cells. Particulars: 1833 cells treated with 5-azacytidine, GAPDH normalization (FIG. 20F). As for the experimental part:
as §1

The subject of a further experiment is HOXA9 in 1833 cells. Nature of the experiment: qRT-PCR / immunoblotting for HOXA9 after demethylation treatment of 1833 cells. Particulars: 1833 cells treated with demethylation reagent; qRT-PCR / immunoblotting (FIG. 20G, 27A, 27C). As for the experimental part:
Total RNA was isolated from cells by using miRNeasy Mini Kit (Qiagen) following the manufacturer's instructions. Quantitative RT-PCR (qRT-PCR) was performed as described (4). The qPCR primers for human or murine HMGA2, TET1, HOXA genes and GAPDH were Taqman and were purchased from Applied Biosystems.
Cells were lysed in complete lysis buffer (pH 7.5) by using Nuclear Extract Kit (Active Motif) following the manufacturer's protocols. Proteins were measured, separated, and probed as described (4). Antibodies specific for each protein were HMGA2 (61042; Active Motif), TET1 (sc-163446; Santa Cruz Biotechnologies), HOXA7 (09-086; Millipore), HOXA9 (09-178; Millipore), GAPDH (ab9484; Abcam), and Flag-M1 (F3040; Sigma).
(§2) Cells were subjected to 5-azacytidine (1 or 3.6 μM), decitabine (5-aza-dC; 220 or 440 nM), or mock treatment by addition into cell culture at indicated concentration. Cells were treated daily. RNA and protein were isolated respectively.

In another experiment the test system is 1833 cells. In words: In vitro cell invasion assay (Matrigel). Particulars: 1833 cells treated with demethylation reagent (FIG. 21D, 27B). The procedure:
as §2
Cell proliferation assays were performed by using the CellTiter-Blues assay (Promega) as described (4). Invasion assays were performed as described (4) with modifications. Briefly, the inserts were coated with Matrigel basement membrane matrix (BD Biosciences). To assess the cell invasion ability, […] cells were seeded on top of the polymerized Matrigel in serum-free medium, and complete medium (10% FBS) was placed in the lower compartment. After 24 h, cells on the lower part of the insert were stained with BD Calcein AM Fluorescent Dye. The inserts with the invaded cells were incubated in dissociation buffer (Travigen) with gentle shaking. Fluorescence measurements were used to record data with 485 nm for excitation and 530 nm for emission.

These results are taken from patent US10679730B2, “Prognostic and predictive breast cancer signature” (The University of Chicago, priority 2013, dated 2020).

With `Nc1ncn([C@@H]2O[C@H](CO)[C@@H](O)[C@H]2O)c(=O)n1` [5-azacytidine], the TET1 expression result in the experiment on TET1 mRNA in 1833 cells is “increase in TET1 expression”. Moreover, in the experiment with HOXA7 mRNA in 1833 cells, the HOXA7 expression entry is reported as “dramatic increase”. Also, the HOXA9 expression result in the experiment with HOXA9 in 1833 cells is recorded as “dramatic increase”. Further, the cell invasion entry in the experiment with 1833 cells was “decreased cell invasion”.
